The record followed here is patent publication US7718801B2, “Substituted imidazole derivative” (Banyu Pharmaceutical Co., Ltd., priority 2004, dated 2010).

In one assay the target is T1, full-length human PLK1 (Homo sapiens, UniProt P53350).
T1 construct: a baculovirus expressing full-length human PLK1 of which N terminus is fused with GST; GST (glutathione S-transferase) (N, cleaved yes); made in house; host or cells: Spodoptera frugiperda Sf9 insect cells (baculovirus)
The experiment in a line: Measurement of the inhibitory effect against PLK1 activity ([γ-33P]ATP, CDC25C-derived peptide substrate). It is filed as biochemical. Conditions: 50 μM ATP, 50 μM substrate peptide, 25° C., 20 minutes. As for the experimental part:
First, a baculovirus expressing full-length human PLK1 of which N terminus is fused with GST (glutathione S-transferase) was prepared, and then the PLK1 infected into a Spodoptera frugiperda (Sf)9 insect cell was highly expressed as a GST-fused protein. The cells were recovered and suspended in a lysis buffer (50 mM tris-hydrochloric acid buffer (pH 7.4)/150 mM sodium chloride/1 mM EDTA (ethylenediamine tetraacetic acid)/1 mM dithiothreitol/0.1% polyoxyethylene sorbitan monolaurate) to break cells with sonicator, and supernatant was recovered after a centrifugation. The supernatant was reacted on glutathione sepharose beads, and then the beads were washed with a lysis buffer. Thereafter, the beads were reacted in a lysis buffer containing Precision Protease to recover supernatant. […]
The reaction was carried out in accordance with the method of Toyoshima-Morimoto et al. [Nature, Vol. 410, 215-220, (2001)]. […] After the phosphocellulose filter is washed with 75 mM phosphate buffer and then dried, the radioactivity of the substrate was measured with a liquid scintillation counter. […]

Assay [1] has as its target T2, PLK1-T210D (human active type PLK1) (Homo sapiens, UniProt P53350, T210D).
T2 construct: a baculovirus expressing full-length human PLK1 of which N terminus is fused with GST; GST (glutathione S-transferase) (N); made in house; host or cells: insect cells (baculovirus)
The assay can be described thus: Measurement of the inhibitory effect against PLK1-T210D activity ([γ-33P]ATP, CDC25C-derived peptide substrate). It is filed as biochemical. The settings on record: 50 μM ATP, 50 μM substrate peptide, 25° C., 20 minutes. As for the experimental part: It has been known that 210th codon of human PLK1 which originally codes for threonine can be changed to an active type by altering the site so as to code aspartic acid [Molecular and Cellular Biology (Mol. Cell. Biol.), 17th edition, 3408 (1997)]. In order to obtain a human active type PLK1 protein, cDNA of mutated PLK1 (PLK1-T210D) of which 210th codon codes aspartic acid was prepared, by substituting a base in the 210th codon of human PLK1 cDNA. This PLK1-T210D cDNA was integrated into a baculovirus expression vector in the same manner as in the above, expressed in insect cells, and then was purified.
For the measurement of the PLK1 and PLK1-T210D activity, used as a substrate was a synthetic peptide (aspartic acid-glutamic acid-leucine-methionine-glutamic acid-alanine-serine-phenylalanine-alanine-aspartic acid-glutamine-aspartic acid-alanine-lysine), where the serine surrounding sequence of the amino acid sequence No. 198 of CDC25C, which have been reported as the site for PLK1 substrate [EMBO Report, 3rd edition, 341 (2002)], is altered.
The reaction was carried out in accordance with the method of Toyoshima-Morimoto et al. [Nature, Vol. 410, 215-220, (2001)]. The volume of the reaction solution was 21.1 μL and the composition of the reaction buffer was 20 mM of tris-hydrochloric acid buffer (pH 7.4)/10 mM magnesium chloride/0.5 mM dithiothreitol/1 mM EGTA (ethylene glycol-bis(beta-aminoethylether)-N,N,N′,N′,-tetraacetic acid). Thereto, purified PLK 1, 50 μM of the substrate peptide, 50 μM of non-labeled adenosine triphosphate (ATP), and 1 μCi of [γ-33P]-labeled ATP (2000 to 4000 Ci/mmole) were added to react at 25° C. for 20 minutes. Then, 10 μL of 350 mM phosphate buffer was added to the reaction system to terminate the reaction. The resultant solution was spotted onto a multi-screen phosphocellulose filter on a 96-well plate. After the phosphocellulose filter is washed with 75 mM phosphate buffer and then dried, the radioactivity of the substrate was measured with a liquid scintillation counter. The non-labeled ATP and [γ-33P]-labeled ATP was purchased from Amersham Bioscience Corp. and the multi-screen phosphocellulose filter from Millipore Corp., respectively.
The addition of the compound of the present invention to the reaction system was carried out by adding 1.1 μL of the solution as prepared by preliminarily dissolving in dimethylsulfoxide at a 20-fold concentration of the final concentration. A control was provided by adding 1.1 μL of dimethylsulfoxide to the reaction system.

The next assay relates to HeLaS3 cells. The assay can be described thus: Inhibitory activity against PLK1 at cellular level: ratio of cells arrested at M phase (phospho-histone H3 Ser10, mitotic index). It is filed as cell-based. The settings on record: Homo sapiens, HeLa S3; HeLaS3 cells synchronized at G1/S, 12 hours with compound; concentration inducing 50% of maximal M phase arrest; read-out: Inhibitory effect against cell proliferation. As for the experimental part: For the measurement of the PLK 1 inhibitory effect of the compound at the cellular level, human uterine cervix cell lines HeLaS3 cells were used. The HeLaS3 cell was obtained from American Type Culture Collection (ATTC), and cultured in a CO2-incubator of saturated steam by using Dulbecco's Modified Eagle's Medium containing 10% fetal calf serum at 37° C. in the presence of 5% CO2.
It has been reported that PLK 1 plays an important role in various stages of mitotic phase (M-phase) in mammalian cells (Nature Review Molecular Cell Biology, Vol. 5, 429, (2004)). In fact, when the mammalian cells are treated with PLK 1 siRNA to control the expression level, the cell cycle progression is inhibited and thus the cell is arrested at M phase. Also, when examining the phosphorylation level of serine, 10th residue of histone H3, which is thought to be required for a chromosome condensation in M phase, it is observed that the level is enhanced to a high level. Thus, after treating the cell with the compound according to the present invention; the phosphorylation level of histone H3 was examined by an indirect fluorescent antibody technique, the cells arrested at M phase were identified by using the level thereof as an indicator to analyze the ratio of cells arrested at M phase; and then EC50 value of each compound was calculated to evaluate the PLK 1 inhibitory effect at a cellular level.
First, HeLaS3 cells synchronized at the G1/S phase by a double-thymidine technique were seeded into lysine-treated 96-well plate (Falcon Corp.) at the ratio of 8,000 per one well, and allowed to stand still in the above-mentioned CO2 incubator. […] After terminating the reaction, the reaction solution in wells was removed and replaced with 100 μL of PBS, and then fluorescence images were captured by using InCell Analyzer 1000 (manufactured by GE Amersham) to analyze the ratio of the cells arrested at M phase (Mitotic index) at different view angles. […]

T2 sequence (P53350 whole entry T210D, the tested form may be a part): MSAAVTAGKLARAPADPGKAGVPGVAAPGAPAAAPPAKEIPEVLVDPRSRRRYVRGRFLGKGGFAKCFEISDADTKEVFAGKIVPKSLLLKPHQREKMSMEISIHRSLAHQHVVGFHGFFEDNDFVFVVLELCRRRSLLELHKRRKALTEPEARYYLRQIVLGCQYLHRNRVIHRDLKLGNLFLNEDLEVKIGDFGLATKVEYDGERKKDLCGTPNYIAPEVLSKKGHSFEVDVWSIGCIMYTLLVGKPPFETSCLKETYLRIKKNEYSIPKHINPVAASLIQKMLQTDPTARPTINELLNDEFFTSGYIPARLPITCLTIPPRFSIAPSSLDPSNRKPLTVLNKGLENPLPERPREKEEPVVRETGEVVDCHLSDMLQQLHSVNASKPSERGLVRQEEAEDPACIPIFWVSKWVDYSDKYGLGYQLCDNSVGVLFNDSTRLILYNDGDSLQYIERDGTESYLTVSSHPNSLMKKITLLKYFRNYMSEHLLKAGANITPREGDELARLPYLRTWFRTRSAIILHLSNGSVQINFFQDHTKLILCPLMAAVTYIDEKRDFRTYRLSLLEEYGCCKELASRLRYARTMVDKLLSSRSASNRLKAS
T1 sequence (P53350 whole entry, the tested form may be a part): as the sequence (P53350 whole entry T210D, the tested form may be a part) above, with D210T counted along it

For `Cc1cccn2c(-c3nc(N[C@@H](C)c4ccccc4)ncc3C#N)cnc12` [Example 8, 4-(8-methylimidazo[1,2-a]pyridin-3-yl)-2-{[(1S)-1-phenylethyl]amino}-5-pyrimidinecarbonitrile], the IC50 (in general, the concentration at which inhibition is half-maximal) at full-length human PLK1 is 43 nM; in assay [1], 26 nM.

Turning to `C[C@H](Nc1ncc(Br)c(-c2cnc3c(Cl)cccn23)n1)c1ccccc1` [Example 28, 5-bromo-4-(8-chloroimidazo[1,2-a]pyridin-3-yl)-N-[(1S)-1-phenylethyl]-2-pyrimidinamine], it took 42 nM to reach half-maximal inhibition in assay [1] (IC50).

With `C[C@H](Nc1ncc(C#N)c(-c2cnc3c(C(F)(F)F)cccn23)n1)c1ccccc1` [Example 36, 2-{[(1S)-1-phenylethyl]amino}-4-[8-(trifluoromethyl)imidazo[1,2-a]pyridin-3-yl]-5-pyrimidinecarbonitrile], the IC50 in assay [1] stood at 16 nM. Also, the EC50 in the assay with HeLaS3 cells is 310 nM.

For `Cc1cccn2c(-c3nc(N[C@@H](C)c4ccc(N)cc4)ncc3C#N)cnc12` [Example 112, 2-{[(1S)-1-(4-aminophenyl)ethyl]amino}-4-(8-methylimidazo[1,2-a]pyridin-3-yl)pyrimidine-5-carbonitrile], in assay [1], inhibition was half-maximal at 47 nM (IC50). For the same compound, the EC50 in the assay on HeLaS3 cells is 340 nM.

In assay [1], `COc1cccn2c(-c3nc(N[C@@H](C)c4ccc(N5CCNCC5)cc4)ncc3C#N)cnc12` [Example 158, 4-(8-methoxyimidazo[1,2-a]pyridin-3-yl)-2-{[(1S)-1-(4-piperazin-1-ylphenyl)ethyl]amino}pyrimidine-5-carbonitrile] showed an IC50 of 41 nM. In addition, the EC50 in the assay on HeLaS3 cells was 180 nM.
